This assay concerns the target Apoptosis regulator Bcl-2 (Homo sapiens, UniProt P10415). In words: FP values were measured as described above.

Chain of Apoptosis regulator Bcl-2 (P10415 whole entry): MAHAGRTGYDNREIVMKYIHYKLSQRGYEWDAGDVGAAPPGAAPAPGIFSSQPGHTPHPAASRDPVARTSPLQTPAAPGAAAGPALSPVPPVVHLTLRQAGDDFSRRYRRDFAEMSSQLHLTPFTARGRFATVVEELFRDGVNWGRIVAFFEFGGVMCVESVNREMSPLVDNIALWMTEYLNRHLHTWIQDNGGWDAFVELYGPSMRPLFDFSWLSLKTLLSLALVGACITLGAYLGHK

Regarding `O=C(NS(=O)(=O)c1cc([N+](=O)[O-])c2cnn(CC3CCOCC3)c2c1)c1ccc(N2CCN(CC3=C(c4ccc(Cl)cc4)CC4(CCC4)CC3)CC2)cc1Oc1cnc2[nH]ccc2c1`, inhibition was half-maximal at 1.6 nM (IC50).

For the origin of these results see ChEMBL document CHEMBL5726656, “N-(phenylsulfonyl)benzamides and related compounds as BCL-2 inhibitors” (2019).
